From BindingDB's records for doi:10.1016/j.bmcl.2004.04.026 (Morphochem, 2004)
pIC50: −log10 of the molar value.

What was measured:
[1] = target: T1, Human immunodeficiency virus type 1 protease (Human immunodeficiency virus 1, UniProt Q72874); test: Evaluated for inhibition of Protease after resynthesis and purification
[2] = target: T1, Human immunodeficiency virus type 1 protease; test: Inhibitory concentration against Protease
[3] = target: T1, Human immunodeficiency virus type 1 protease; test: Evaluated for inhibition of Protease after CLND/MS correction from the crude mixture

pIC50 [1]	pIC50 [2]	pIC50 [3]	SMILES
5.34	4.08	5.92	C[C@@H](c1ccccc1)C1C(=O)O[C@](CCc2ccccc2)(C(=O)NCc2ccc(C(C)(C)C)cc2)C1=O (some centres not stated)
–	< 3.00	–	CNC1C(=O)OC(CCc2ccccc2)(C(=O)NCC2CCCO2)C1=O (configuration not stated) [3-Hydroxy-4-methylamino-5-oxo-2-phenethyl-2,5-dihydro-furan-2-carboxylic acid (tetrahydro-furan-2-ylmethyl)-amide]
–	< 3.00	–	COc1cc(CC2C(=O)OC(C)(C(=O)NC3CC3)C2=O)cc(OC)c1OC (configuration not stated) [3-Hydroxy-2-methyl-5-oxo-4-(3,4,5-trimethoxy-benzyl)-2,5-dihydro-furan-2-carboxylic acid cyclopropylamide]
–	< 3.00	–	COc1cc(CC2C(=O)OC(CCc3ccccc3)(C(=O)NCC(C)(C)C)C2=O)cc(OC)c1OC (configuration not stated) [3-Hydroxy-5-oxo-2-phenethyl-4-(3,4,5-trimethoxy-benzyl)-2,5-dihydro-furan-2-carboxylic acid (2,2-dimethyl-propyl)-amide]
–	< 3.00	–	COc1cc(CC2C(=O)OC(C)(C(=O)NC(C)(C)C)C2=O)cc(OC)c1OC (configuration not stated) [3-Hydroxy-2-methyl-5-oxo-4-(3,4,5-trimethoxy-benzyl)-2,5-dihydro-furan-2-carboxylic acid tert-butylamide]
